Source: patent US8278304B2, “Substituted 4-hydroxypyrimidine-5-carboxamides” (Merck Sharp & Dohme Corp., priority 2008, dated 2012)
Counter-ions that a name gives are not always drawn.

Target: T1, PHD2 (Homo sapiens, UniProt Q9GZT9)
T1 construct: FLAG-tagged full length PHD2 expressed in and purified from baculovirus-infected Sf9 cells; FLAG; made in house; host or cells: baculovirus-infected Sf9 cells
Assay: PHD2 / HIF-1α peptide hydroxylation assay, time resolved fluorescence (VHL complex detection)
Type: biochemical
Details: FLAG-tagged full length PHD2; 0.2 μM 2-oxoglutarate, 0.5 μM HIF-1α peptide; read-out: PHD2 Activity (PHD2 binding activity expressed as IC50 (nM))
Method in brief: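 Sf9-expressed FLAG-tagged full-length PHD2 (0.15 μg/ml) preincubated with compound 30 min at room temperature in Tris pH 7.4 buffer with 10 μM ferrous sulfate, 1 mM ascorbate and catalase. Reaction started with 0.2 μM 2-oxoglutarate and 0.5 μM biotinylated HIF-1α peptide (final); hydroxylation detected by time-resolved fluorescence via VHL complex binding.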

T1 sequence (Q9GZT9 whole entry): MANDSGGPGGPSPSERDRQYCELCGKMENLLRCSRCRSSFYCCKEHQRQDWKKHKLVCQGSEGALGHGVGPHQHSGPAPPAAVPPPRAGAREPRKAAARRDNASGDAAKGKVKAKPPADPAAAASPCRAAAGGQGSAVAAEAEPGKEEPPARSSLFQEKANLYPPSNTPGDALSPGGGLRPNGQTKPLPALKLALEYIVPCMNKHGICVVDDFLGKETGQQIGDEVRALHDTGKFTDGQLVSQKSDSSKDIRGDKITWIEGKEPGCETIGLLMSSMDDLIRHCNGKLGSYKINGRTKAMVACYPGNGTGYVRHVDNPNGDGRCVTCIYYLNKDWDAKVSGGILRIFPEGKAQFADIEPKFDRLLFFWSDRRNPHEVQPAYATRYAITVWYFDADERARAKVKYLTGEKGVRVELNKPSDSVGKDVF

Q: For O=C(N[C@H](CO)c1ccccc1)c1cnc(-n2cccn2)nc1O [Example 122, 4-hydroxy-N-[(1S)-2-hydroxy-1-phenylethyl]-2-(1H-pyrazol-1-yl)pyrimidine-5-carboxamide], which IC50 is on record?
A: 10 to 100 nM

Q: How did the IC50 turn out when COc1ccc(C(NC(=O)c2cnc(-c3cccnn3)nc2O)c2ccc(O)cc2)cc1 (single isomer, unassigned) [Example 157, 4-hydroxy-N-[(4-hydroxyphenyl)(4-methoxyphenyl)methyl]-2-(pyridazin-3-yl)pyrimidine-5-carboxamide] was run?
A: ≤ 10 nM

Q: For COc1ccc(C(NC(=O)c2cnc(-c3cccnn3)nc2O)c2cccc(C#N)c2)cc1 (single isomer, unassigned) [Example 147, N-[(3-cyanophenyl)(4-methoxyphenyl)methyl]-4-hydroxy-2-(pyridazin-3-yl)pyrimidine-5-carboxamide], which IC50 is on record?
A: ≤ 10 nM

Q: Which IC50 does the source give for O=C(NC(c1ccccc1)c1ccccn1)c1cnc(-c2cccnn2)nc1O (centres unmarked) [Example 136, 4-hydroxy-N-[phenyl(pyridin-2-yl)methyl]-2-pyridazin-3-ylpyrimidine-5-carboxamide trifluoroacetate (salt)] here?
A: ≤ 10 nM

Q: How did the IC50 turn out when CC(C)(NC(=O)c1cnc(-n2cccn2)nc1O)c1ccc(F)c(F)c1 [Example 89, N-[1-(3,4-difluorophenyl)-1-methylethyl]-4-hydroxy-2-(1H-pyrazol-1-yl)pyrimidine-5-carboxamide] was run?
A: ≤ 10 nM

Q: Which IC50 does the source give for O=C(NCc1ccc(C(F)(F)F)cc1)c1cnc(-c2cnccn2)nc1O [Example 20, 4-Hydroxy-2-pyrazin-2-yl-N-[4-(trifluoromethyl)benzyl]pyrimidine-5-carboxamide] here?
A: 10 to 100 nM

Q: With CC(O)c1ccc(C(NC(=O)c2cnc(-c3cccnn3)nc2O)c2ccc(Cl)cc2)cc1 (centres unmarked) [Example 179, N-{(4-chlorophenyl)[4-(1-hydroxyethyl)phenyl]methyl}-4-hydroxy-2-(pyridazin-3-yl)pyrimidine-5-carboxamide] as the compound, how does the IC50 read?
A: ≤ 10 nM

Q: C[C@H](NC(=O)c1cnc(-c2cccnn2)nc1O)c1ccc2c(c1)OCCO2 [Example 140, N-[(1S)-1-(2,3-dihydro-1,4-benzodioxin-6-yl)ethyl]-4-hydroxy-2-(pyridazin-3-yl)pyrimidine-5-carboxamide] was tested. Which IC50 did it give?
A: ≤ 10 nM

Q: With CC(C)(NC(=O)c1cnc(-n2cccn2)nc1O)C(=O)O [Example 188, N-{[4-hydroxy-2-(1H-pyrazol-1-yl)pyrimidin-5-yl]carbonyl}-2-methylalanine] as the compound, how does the IC50 read?
A: 100 to 1000 nM

Q: For C[C@H](NC(=O)c1cnc(-n2cccn2)nc1O)c1ccc(Br)cc1 [Example 91, N-[(1S)-1-(4-bromophenyl)ethyl]-4-hydroxy-2-(1H-pyrazol-1-yl)pyrimidine-5-carboxamide], which IC50 is on record?
A: ≤ 10 nM

Q: With CCCC(NC(=O)c1cnc(-n2cccn2)nc1O)c1ccc(-c2ccccc2)cc1 (centres unmarked) [Example 165, N-[1-(biphenyl-4-yl)butyl]-4-hydroxy-2-(1H-pyrazol-1-yl)pyrimidine-5-carboxamide] as the compound, how does the IC50 read?
A: ≤ 10 nM

Q: With Cc1csc(C(C)NC(=O)c2cnc(-n3cccn3)nc2O)n1 (centres unmarked) [Example 117, 4-hydroxy-N-[1-(4-methyl-1,3-thiazol-2-yl)ethyl]-2-(1H-pyrazol-1-yl)pyrimidine-5-carboxamide hydrochloride] as the compound, how does the IC50 read?
A: ≤ 10 nM

Q: How did the IC50 turn out when Cc1ccc(CNC(=O)c2cnc(-n3cccn3)nc2O)cc1 [Example 77, 4-Hydroxy-N-(4-methylbenzyl)-2-(1H-pyrazol-1-yl)pyrimidine-5-carboxamide] was run?
A: 10 to 100 nM

Q: With O=C(NCc1ccc(Br)cc1)c1cnc(-n2cccn2)nc1O [Example 9, N-(4-bromobenzyl)-4-hydroxy-2-(1H-pyrazol-1-yl)pyrimidine-5-carboxamide] as the compound, how does the IC50 read?
A: ≤ 10 nM

Q: For O=C(NCc1cccc(-c2ccccc2)c1)c1cnc(-n2cccn2)nc1O [Example 53, N-(biphenyl-3-ylmethyl)-4-hydroxy-2-(1H-pyrazol-1-yl)pyrimidine-5-carboxamide], which IC50 is on record?
A: ≤ 10 nM

Q: How did the IC50 turn out when O=C(NC1(c2ccccc2)CC1)c1cnc(-n2cccn2)nc1O [Example 87, 4-Hydroxy-N-(1-phenylcyclopropyl)-2-(1H-pyrazol-1-yl)pyrimidine-5-carboxamide] was run?
A: ≤ 10 nM

Q: How did the IC50 turn out when CC(C)(NC(=O)c1cnc(-n2cccn2)nc1O)C(=O)N1CCc2ccccc21 [Example 189, N-[1-(2,3-dihydro-1H-indol-1-yl)-2-methyl-1-oxopropan-2-yl]-4-hydroxy-2-(1H-pyrazol-1-yl)pyrimidine-5-carboxamide] was run?
A: ≤ 10 nM

Q: Which IC50 does the source give for C[C@H](NC(=O)c1cnc(-n2cccn2)nc1O)C1CCCCC1 [Example 85, N-[(1S)-1-cyclohexylethyl]-4-hydroxy-2-(1H-pyrazol-1-yl)pyrimidine-5-carboxamide] here?
A: 10 to 100 nM

Q: How did the IC50 turn out when COc1ccc(C(NC(=O)c2cnc(-c3cccnn3)nc2O)c2ccc(OC)cc2OC)c(OC)c1 [Example 174, N-[bis(2,4-dimethoxyphenyl)methyl]-4-hydroxy-2-(pyridazin-3-yl)pyrimidine-5-carboxamide] was run?
A: ≤ 10 nM

Q: With C[C@H](NC(=O)c1cnc(-n2cccn2)nc1O)c1ccc(Oc2ccccc2)cc1 [Example 129, 4-hydroxy-N-[(1S)-1-(4-phenoxyphenyl)ethyl]-2-(1H-pyrazol-1-yl)pyrimidine-5-carboxamide] as the compound, how does the IC50 read?
A: ≤ 10 nM

Q: COc1ccc(C(NC(=O)c2cnc(-c3cccnn3)nc2O)c2ccc(C#N)cc2)cc1 (single isomer, unassigned) [Example 151, N-[(4-cyanophenyl)(4-methoxyphenyl)methyl]-4-hydroxy-2-(pyridazin-3-yl)pyrimidine-5-carboxamide] was tested. Which IC50 did it give?
A: ≤ 10 nM

Q: With C[C@H](NC(=O)c1cnc(-c2cccnn2)nc1O)c1ccc(Oc2ccccc2)cc1 [Example 137, 4-hydroxy-N-[(1S)-1-(4-phenoxyphenyl)ethyl]-2-(pyridazin-3-yl)pyrimidine-5-carboxamide] as the compound, how does the IC50 read?
A: ≤ 10 nM

Q: COc1ccc(C(NC(=O)c2cnc(-c3cccnn3)nc2O)c2ccc(SC)cc2)cc1 (centres unmarked) [Example 178, 4-hydroxy-N-{(4-methoxyphenyl)[4-(methylsulfanyl)phenyl]methyl}-2-(pyridazin-3-yl)pyrimidine-5-carboxamide] was tested. Which IC50 did it give?
A: ≤ 10 nM

Q: With O=C(NCc1ccc(-c2ccccc2F)nc1)c1cnc(-n2cccn2)nc1O [Example 106, N-{[6-(2-fluorophenyl)pyridin-3-yl]methyl}-4-hydroxy-2-(1H-pyrazol-1-yl)pyrimidine-5-carboxamide] as the compound, how does the IC50 read?
A: ≤ 10 nM

Q: For COc1ccc(C(NC(=O)c2cnc(-c3cccnn3)nc2O)c2ccc(OC)nc2)cn1 [Example 192, N-[bis(6-methoxypyridin-3-yl)methyl]-4-hydroxy-2-(pyridazin-3-yl)pyrimidine-5-carboxamide], which IC50 is on record?
A: ≤ 10 nM

Q: With COc1ccc(C(NC(=O)c2cnc(-c3cccnn3)nc2O)c2ccc3ccccc3n2)cc1 (centres unmarked) [Example 171, 4-hydroxy-N-[(4-methoxyphenyl)(quinolin-2-yl)methyl]-2-(pyridazin-3-yl)pyrimidine-5-carboxamide] as the compound, how does the IC50 read?
A: ≤ 10 nM

Q: COc1ccc(C(NC(=O)c2cnc(-c3cccnn3)nc2O)c2cccc(C)n2)c(OC)c1 (centres unmarked) [Example 115, N-[(2,4-Dimethoxyphenyl)(6-methylpyridin-2-yl)methyl]-4-hydroxy-2-pyridazin-3-ylpyrimidine-5-carboxamide] was tested. Which IC50 did it give?
A: ≤ 10 nM

Q: Which IC50 does the source give for N#Cc1ccc(C(NC(=O)c2cnc(-c3cccnn3)nc2O)C2CCCCC2)cc1 (single isomer, unassigned) [Example 162, N-[(4-cyanophenyl)(cyclohexyl)methyl]-4-hydroxy-2-(pyridazin-3-yl)pyrimidine-5-carboxamide] here?
A: 100 to 1000 nM

Q: For O=C(NC1CCCCC1)c1cnc(-c2cccnn2)nc1O [Example 135, N-cyclohexyl-4-hydroxy-2-(pyridazin-3-yl)pyrimidine-5-carboxamide], which IC50 is on record?
A: 10 to 100 nM

Q: How did the IC50 turn out when O=C(NC1CCc2ccccc21)c1cnc(-n2cccn2)nc1O (centres unmarked) [Example 57, N-(2,3-dihydro-1H-inden-1-yl)-4-hydroxy-2-(1H-pyrazol-1-yl)pyrimidine-5-carboxamide] was run?
A: 10 to 100 nM

Q: Which IC50 does the source give for COc1ccc(C(NC(=O)c2cnc(-c3ccccn3)nc2O)c2ccc(OC)cc2)cc1 [Example 14, N-[bis(4-methoxyphenyl)methyl]-4-hydroxy-2-pyridin-2-ylpyrimidine-5-carboxamide] here?
A: ≤ 10 nM

Q: Which IC50 does the source give for O=C(O)c1ccc(-c2ncc(C(=O)NCc3ccc(F)cc3)c(O)n2)nc1 [Example 3, 6-(5-{[(4-Fluorobenzyl)amino]carbonyl}-4-hydroxypyrimidin-2-yl)nicotinic acid] here?
A: 10 to 100 nM

Q: For O=C(NCc1ccc(Cl)nc1)c1cnc(-n2cccn2)nc1O [Example 59, N-[(6-chloropyridin-3-yl)methyl]-4-hydroxy-2-(1H-pyrazol-1-yl)pyrimidine-5-carboxamide], which IC50 is on record?
A: 10 to 100 nM

Q: O=C(NCc1ccc(F)cc1)c1cnc(-c2ccccn2)nc1O [Example 7, N-(4-fluorobenzyl)-4-hydroxy-2-pyridin-2-ylpyrimidine-5-carboxamide] was tested. Which IC50 did it give?
A: 100 to 1000 nM

Q: Which IC50 does the source give for O=C(NCc1ccc2c(c1)CCO2)c1cnc(-n2cccn2)nc1O [Example 101, N-(2,3-dihydro-1-benzofuran-5-ylmethyl)-4-hydroxy-2-(1H-pyrazol-1-yl)pyrimidine-5-carboxamide] here?
A: ≤ 10 nM

Q: COc1cccc([C@H](C)NC(=O)c2cnc(-n3cccn3)nc2O)c1 [Example 126, 4-hydroxy-N-[(1S)-1-(3-methoxyphenyl)ethyl]-2-(1H-pyrazol-1-yl)pyrimidine-5-carboxamide] was tested. Which IC50 did it give?
A: ≤ 10 nM

Q: How did the IC50 turn out when O=C(NCc1ccc(Cl)cc1Cl)c1cnc(-n2cccn2)nc1O [Example 51, N-(2,4-dichlorobenzyl)-4-hydroxy-2-(1H-pyrazol-1-yl)pyrimidine-5-carboxamide] was run?
A: ≤ 10 nM

Q: How did the IC50 turn out when COc1ccc(C(NC(=O)c2cnc(-c3cccnn3)nc2O)c2cccc(C)n2)c(OC)c1 (single isomer, unassigned) [Example 149, N-[(2,4-dimethoxyphenyl)(6-methylpyridin-2-yl)methyl]-4-hydroxy-2-(pyridazin-3-yl)pyrimidine-5-carboxamide] was run?
A: ≤ 10 nM
